Experimental data: article PMC1315280, “The Flavoring Agent Dihydrocoumarin Reverses Epigenetic Silencing and Inhibits Sirtuin Deacetylases” (PLoS Genetics, 2005)

Biological target: T1, SIRT1 (Homo sapiens, UniProt Q96EB6)
T1 construct: recombinant SIRT1
T1 sequence (Q96EB6 2-747): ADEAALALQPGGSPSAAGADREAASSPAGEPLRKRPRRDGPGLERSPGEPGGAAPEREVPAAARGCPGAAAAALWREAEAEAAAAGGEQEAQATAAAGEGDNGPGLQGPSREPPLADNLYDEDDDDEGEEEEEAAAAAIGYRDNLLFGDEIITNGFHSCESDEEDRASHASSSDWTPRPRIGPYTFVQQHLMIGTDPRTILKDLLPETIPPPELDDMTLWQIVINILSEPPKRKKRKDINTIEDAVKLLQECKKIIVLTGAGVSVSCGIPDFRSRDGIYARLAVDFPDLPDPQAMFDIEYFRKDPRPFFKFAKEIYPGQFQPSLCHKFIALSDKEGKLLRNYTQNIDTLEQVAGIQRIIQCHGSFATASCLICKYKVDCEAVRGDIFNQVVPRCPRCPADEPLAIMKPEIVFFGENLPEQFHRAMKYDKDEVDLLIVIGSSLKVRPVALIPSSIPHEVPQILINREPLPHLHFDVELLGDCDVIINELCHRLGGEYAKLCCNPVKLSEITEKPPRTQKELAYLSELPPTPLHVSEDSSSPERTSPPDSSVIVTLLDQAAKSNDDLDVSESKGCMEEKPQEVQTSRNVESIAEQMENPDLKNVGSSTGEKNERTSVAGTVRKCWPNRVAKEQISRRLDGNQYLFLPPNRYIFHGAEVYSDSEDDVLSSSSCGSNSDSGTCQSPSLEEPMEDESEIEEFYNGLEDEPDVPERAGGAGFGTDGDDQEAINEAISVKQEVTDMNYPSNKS
Test: in vitro deacetylase assay with recombinant enzyme and [3H] acetylated histone H4 peptide
Assay type: biochemical

IC50: 208 µM
SMILES: O=C1CCc2ccccc2O1 [DHC, dihydrocoumarin]
